{"source": "patent US9850225B2", "about": "“Compounds useful as immunomodulators” (BRISTOL-MYERS SQUIBB COMPANY, priority 2014, dated 2017)", "data": [{"biological_target": "PD-1/PD-L1 interaction (PD-1-Ig / PD-L1-His) (Homo sapiens (Human), UniProt Q9NZQ7)", "sequence (Q9NZQ7 other isoform, or with tags, fused parts or gaps)": "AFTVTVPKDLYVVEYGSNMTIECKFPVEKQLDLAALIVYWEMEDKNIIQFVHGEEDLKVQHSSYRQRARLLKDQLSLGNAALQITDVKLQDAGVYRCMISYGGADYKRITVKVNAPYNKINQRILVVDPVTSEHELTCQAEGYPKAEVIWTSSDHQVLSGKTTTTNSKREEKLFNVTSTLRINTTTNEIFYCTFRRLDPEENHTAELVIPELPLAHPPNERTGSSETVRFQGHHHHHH", "assay": "PD-1/PD-L1 Homogenous Time-Resolved Fluorescence (HTRF) binding assay", "details": "PD-1/PD-L1 HTRF binding assay; value given as range class; read-out: Range or IC50", "in_short": "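Human PD-L1-His (10 nM final) was pre-incubated with inhibitor for 15 min, then PD-1-Ig (20 nM final) was added for a further 15 min in dPBS with 0.1% BSA and 0.05% Tween-20. Binding was detected by HTRF using Eu-cryptate anti-Ig (1 nM) and APC anti-His (20 nM).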", "units": {"IC50": "nM"}, "values": [{"smiles": "Cc1c(COc2cc(OCc3cccc(C#N)c3)c(CNC3(C(=O)O)COC3)cc2Cl)cccc1-c1ccc2c(c1)OCCO2", "note": "[Example 1243, 3-((5-chloro-2-((3-cyanobenzyl)oxy)-4-((3-(2,3-dihydrobenzo[b][1,4]dioxin-6-yl)-2-methylbenzyl)oxy)benzyl)amino)oxetane-3-carboxylic acid]", "IC50": "10 to 100"}, {"smiles": "Cc1cc(CN2CCCC[C@H]2C(=O)O)c(OCCCCC#N)cc1OCc1cccc(-c2ccc3c(c2)OCCO3)c1C", "note": "[Example 1296, (S)-1-(2-(4-cyanobutoxy)-4-(3-(2,3-dihydrobenzo[b][1,4]dioxin-6-yl)-2-methylbenzyloxy)-5-methylbenzyl)piperidine-2-carboxylic acid]", "IC50": "10 to 100"}, {"smiles": "CC(=O)NCCNCc1ccc(OCc2cccc(-c3ccccc3)c2C)cc1OCc1cccc(C#N)c1", "note": "[Example 1028, N-(2-((2-((3-cyanobenzyl)oxy)-4-((2-methyl-[1,1′-biphenyl]-3-yl)methoxy)benzyl)amino)ethyl)acetamide]", "IC50": "10 to 100"}, {"smiles": "COCC(NCc1cc(Cl)c(OCc2cccc(-c3ccc4c(c3)OCCO4)c2C)cc1OCc1cccc(C#N)c1)C(=O)O", "note": "(centres unmarked) [Example 1184, 2-((5-chloro-2-((3-cyanobenzyl)oxy)-4-((3-(2,3-dihydrobenzo[b][1,4]dioxin-6-yl)-2-methylbenzyl)oxy)benzyl)amino)-3-methoxypropanoic acid]", "IC50": "0.6 to 10"}, {"smiles": "CC(=O)NCCNCc1ccc(OCc2cccc(-c3ccccc3)c2C)cc1OCc1cccc(C(=O)OC(C)(C)C)c1", "note": "[Example 1105, tert-butyl 3-((2-(((2-acetamidoethyl)amino)methyl)-5-((2-methyl-[1,1′-biphenyl]-3-yl)methoxy)phenoxy)methyl)benzoate]", "IC50": "100 to 20000"}]}]}
